Here are results for 1 molecule from PMC11965660, “Isobavachalcone ameliorates Alzheimer disease pathology by autophagy-mediated clearance of amyloid beta and inhibition of NLRP3 inflammasome in primary astrocytes and 5x-FAD mice” (Frontiers in Pharmacology, 2025).

Entries after “also recorded” stand apart in the source; their conditions may differ. Read-outs that look alike come from different tables or passages of the source.

Data set [1] is described as follows: Pharmacokinetic analysis in plasma and brain. It is filed as in vivo. The following applies: C57BL/6J mice. As to the method:
C57BL/6J (Jax:000664) male mice were used for pharmacokinetic analysis of IBC. Mice were randomly sorted into 9 groups (n = 5). 30 mg/kg oral dose of IBC (1% DMSO +70% PEG-200 + 29% water) was given to mice. Blood or brain samples were collected at 0, 0.25, 0.5, 1, 2, 4, 6, 8 and 24 h. The plasma (100 µL) sample was processed with ethyl acetate (200 µL) containing IS (150 ng/mL) and centrifuged at 300 g for 10 min. The organic layer was separated and dried in a vacuum, reconstituted with acetonitrile, and analyzed by LC-MS/MS [SRM transition of IBC and IS (Phenacetin) is 325.2 & gt; 149.0 and 180.2 & gt; 110.2 in Positive mode]. Brain homogenate was prepared using the weighted amount of brain tissue in water at the concentration level of 350 mg/mL and processed similarly to plasma samples.

Data set [2] concerns primary astrocytes. Kind of data set: Cell viability assay (MTT and SRB). Type of data set: cell-based, C57BL/6J mice. The conditions noted are these: 24 h, up to 100 μM. How it is done: For cell viability assay, primary astrocytes were seeded in 96 well plate and IBC treatment at different concentration was given for 24 h. For MTT assay, cells were treated with 1.25, 2.5, 5, 10, 20, 40, 80 and 100 μM of IBC, while for the SRB assay, 0.625, 1.25, 2.5, 5, […], 20, 40, 80 and 100 μM IBC treatment was given. MTT dye at a concentration of 2.5 mg/ml was added 4 h before experiment termination. Formazan crystals thus formed were dissolved in DMSO and absorbance was measured at 570 nm.
For the SRB assay, the experiment was terminated by adding 50% chilled TCA into the wells for 1 h. Pellets were washed five times with distilled water and kept drying. Cells were then incubated with SRB dye for 30 min at RT, followed by washing with 1% acetic acid thrice. After drying, pellets were dissolved in 10 mM Tris-HCl (pH-10.5) and absorbance was measured at 540 nm.

Data set [3] relates to GFAP. Kind of data set: Immunohistochemistry of GFAP in hippocampus. It is filed as in vivo, 5x-FAD mice. The following applies: 25 and 50 mg/kg, vs 5x-FAD control. From the text: Hemizygous 5x-FAD transgenic mice (B6.Cg-Tg(APPSwFlLon, PSEN1*M146L*L286V) 6799Vas/Mmjax; MMRRC Strain: 034848-JAX) on congenic C57BL/6J genetic background were used for experiments. The 5x-FAD mice were genotyped using APP-specific qPCR probes to detect the transgene as per the protocol of Jackson Laboratory. Six months old 5x-FAD mice were randomly divided into three groups (n = 5), based on their body weights, with three males and two females in each group. We used mixed-cohort of males and females for our study to exclude any gender biased effect of IBC. Also, AD symptoms are more pronounced in females than in males ([Aggarwal and Mielke, 2023]), making it possible that males and females respond differently to the drug and treatment. Considering this, it is important to show effect of IBC on both sexes. At this age, Aβ deposition and neuroinflammation has already progressed in these mice. We have used IBC as a curative drug rather than a preventive drug. Prior to the initiation of the study, all the animals were acclimatized for 1 week under standard laboratory conditions; animals were drug naive with no prior procedures performed. All testing were performed from 1 to 4 p.m. […]
Mice’s hippocampus tissue was fixed in 10% formalin. […] Images were taken in a CQ1 high throughput imaging system and analyzed using cell pathfinder software.

Data set [4] has as its system IL-1β. In words: IL-1β in mice cortex by ELISA. The following applies: 25 and 50 mg/kg, vs 5x-FAD control. It is filed as in vivo, 5x-FAD mice. The text has this:
After the termination of experiments, the supernatant was collected and analyzed for levels of cytokines. For measuring IL-1β and IL-18, supernatant collected after NLRP3 inflammasome activation as mentioned above, was subjected to ELISA. For detection of IL-1β in mice cortex, mice cortices were isolated and homogenized in RIPA buffer to measure IL-1β in homogenates. The manufacturer’s protocol was followed for measuring the cytokines. The levels of measured cytokines were normalized with the total protein content of the cells. For total protein content of cell pellet lysed with lysis buffer (0.2 N NaCl and 1% Triton-X 100) was measured.
Hemizygous 5x-FAD transgenic mice (B6.Cg-Tg(APPSwFlLon, PSEN1*M146L*L286V) 6799Vas/Mmjax; MMRRC Strain: 034848-JAX) on congenic C57BL/6J genetic background were used for experiments. The 5x-FAD mice were genotyped using APP-specific qPCR probes to detect the transgene as per the protocol of Jackson Laboratory. Six months old 5x-FAD mice were randomly divided into three groups (n = 5), based on their body weights, with three males and two females in each group. We used mixed-cohort of males and females for our study to exclude any gender biased effect of IBC. Also, AD symptoms are more pronounced in females than in males ([Aggarwal and Mielke, 2023]), making it possible that males and females respond differently to the drug and treatment. […]

Where [5] appears, read: male, mouse, blood plasma, 30 mg/kg oral.
[6] abbreviates: male, mouse, brain, 30 mg/kg oral.

Consider `CC(C)=CCc1c(O)ccc(C(=O)/C=C/c2ccc(O)cc2)c1O` [IBC, isobavachalcone], for which, in data set [1] (blood plasma, 30 mg/kg oral), the Cl came to 833 ± 120 mL/min/kg and the Vd was found to be 355 ± 81 L/kg. In data set [1] (brain, 30 mg/kg oral), the AUC0-t amounted to 72 ± 7 ng·h/g and the “AUC0-∞” value is 79 ± 7 ng·h/g. The Kp in data set [1] (male, mouse, brain and plasma, 30 mg/kg oral, read-out: brain-to-plasma ratio) is 0.12 to 0.16. Besides, in data set [1] (setting [5]), the AUC(0-inf) was found to be 637 ± 74 ng·h/mL, the peak concentration (Cmax) was 208 ± 46 ng/mL, the time to peak (Tmax) was 0.6 ± 0.1 h and the half-life was 5.6 ± 1.5 h. Moreover, the AUC0-t in data set [1] (male, mouse, blood plasma, 30 mg/kg oral, read-out: AUC0-t) turned out to be 548 ± 59 ng·h/mL. Further, in data set [1] (setting [6]), the highest level (Cmax) was 34 ± 4 ng/g, the Tmax worked out at 0.6 ± 0.1 h and the half-life was 1.8 ± 0.4 h. The blood-brain barrier penetration result in data set [1] (single dose 30 mg/kg p.o., 30 mg/kg) was “low penetration; also recorded: low brain availability”. Besides, the “toxicity in primary astrocytes (MTT and SRB)” value in data set [2] is given as “no toxicity; also recorded: non-toxic”. Besides, in data set [3], the “GFAP expression (IHC)” value was “significantly reduced”. Also, the “IL-1β level in cortex” value in data set [4] is “highly significant decline”.
